Some results are limits rather than exact numbers.

One data set can be described thus: Acute toxicity in rats. The settings on record: Jcl-SD, rat, in vivo, read-out: LD₅₀. The method, then:
(§1) Compound A was orally or subcutaneously administered to each ten male and female 6-weeks aged Jcl-ICR mice and Jcl-SD rats, respectively per group. Two groups of Compound A (1000 and 2000 mg/kg) were used by suspending into 0.5% carboxymethyl cellulose (CMC) aqueous solution at the concentration of 100 mg/ml.

The next data set has as its system patients in hemodialysis. Put plainly: Treatment for pruritus cutanea in hemodialysis (improvement score of itching and rash). Format: in vivo, human. The settings on record: for improvement in itching: four patients in hemodialysis with severe itching, no effect with other agents, hydrate. The method, then:
8-[p-(4-phenylbutoxy)benzoyl]amino-2-(tetrazol-5-yl)-4-oxo-4H-1-benzopyran·1/2 hydrate (abbreviated as "Compound A" hereafter) were administered at the dose of 225 mg or 450 mg per day to four patients in hemodialysis (dialyzed for 3 to 11 years) who have severe itching and show no effect with other agents [no effect even with antihistamine, azerastin (anti-allergy agent already on the market) and steroid ointment]. The evaluation was carried out by improvement score of subjective symptom according to "The Standard of degree of Itching" and of rash (judged by slide).

The nature of a further data set: Acute toxicity in mice. The settings on record: Jcl-ICR, mouse, in vivo, read-out: LD₅₀. The method, then: as §1
Where [1] appears, read: 225 mg or 450 mg per day, four patients in hemodialysis.

On to `O=C(Nc1cccc2c(=O)cc(-c3nnn[nH]3)oc12)c1ccc(OCCCCc2ccccc2)cc1` [Compound A, 8-[p-(4-phenylbutoxy)benzoyl]amino-2-(tetrazol-5-yl)-4-oxo-4H-1-benzopyran·1/2 hydrate], for which the LD50 was > 2000 mg/kg in the data set “Acute toxicity in rats” (po, orally, female); > 2000 mg/kg in “Acute toxicity in rats” (po, orally, male); > 2000 mg/kg in “Acute toxicity in rats” (sc, subcutaneously, female); > 2000 mg/kg in the data set “Acute toxicity in rats” (sc, subcutaneously, male); > 2000 mg/kg in the data set “Acute toxicity in mice” (po, orally, female); > 2000 mg/kg in “Acute toxicity in mice” (po, orally, male). For the same compound, the LD50 in “Acute toxicity in mice” (sc, subcutaneously, female) is > 2000 mg/kg; in “Acute toxicity in mice” (sc, subcutaneously, male) it was > 2000 mg/kg. Further, the side effect result in the data set with patients in hemodialysis (setting [1]) is “no side effect”. For the same compound, the “subjective symptom and objective symptom (rash), daytime and nighttime” value in the data set on patients in hemodialysis (setting [1]) is “Improvement was shown”. For the same compound, the improvement in itching entry is given as “became better” in the data set on patients in hemodialysis (225 mg or 450 mg per day) and “Remarkable improvement” in the data set with patients in hemodialysis (225 mg or 450 mg per day, listed as 8-[p-(4-phenylbutoxy)benzoyl]amino-2-(tetrazol-5-yl)-4-oxo-4H-1-benzopyran semih).
Take `CN1CCCC(n2nc(Cc3ccc(Cl)cc3)c3ccccc3c2=O)CC1` (stereo not shown) [azerastin, reference compound]: the effect on itching result in the data set on patients in hemodialysis (earlier treatment of the same four patients with other agents) was “no effect”.

Source of the values: patent EP0641569A1, “ANTIPRURITIC” (ONO PHARMACEUTICAL CO., LTD., priority 1992, dated 1993).
